Test results from patent publication US11317626B2, “Forchlorfenuron mixtures and uses thereof” (Valent BioSciences LLC, priority 2018, dated 2022).

Tests used:
Type in all cases: in vivo
[1] = system: Prunus (stone fruit) plants; assay: Example 5: bud break and shoot growth of Prunus (stone fruit) plants in greenhouse
Procedure: (§1) To determine if the mixtures provided unexpected results, the observed combined efficacy (“OCE”) was divided by the expected combined efficacy (“ECE”) wherein the expected ECE is calculated by the Abbott method: ECE=A+B−(AB/100), • wherein ECE is the expected combined efficacy and in which A and B are the speed of bud break relative to control, the number of buds broken per plant relative to control, shoot length relative to control or shoot weight relative to control given by the single active ingredients. If the ratio between the OCE of the mixture and the ECE of the mixture is greater than 1, then greater than expected interactions are present in the mixture. (Gisi, Synergistic Interaction of Fungicides in Mixtures, The American Phytopathological Society, 86:11, 1273-1279,1996). Results
(§2) To assess the ability of mixtures of the invention to promote and synchronize bud break, these mixtures were applied to Prunus (stone fruit) plants in the greenhouse and examined for bud break (initiation of growth) and subsequent shoot development. Forchlorfenuron, Dormex (50% HC), 15-0-0 (Erger®) and 17-0-0 fertilizers (CAN17), and mixtures thereof were each applied individually or sequentially (co-applied) to the shoots of Prunus plants. Plants were evaluated for bud break at 28 days after treatment.

[2] = system: Concord grape vines; assay: Example 2: Concord grape vines greenhouse, forchlorfenuron and 17-0-0 fertilizer (CAN17) study
Description: (§3) To assess the ability of mixtures of the invention to promote and synchronize bud break these mixtures were applied to Concord grape vines and examined for bud break (initiation of growth) and subsequent shoot development. Specifically, dormant bare-rooted Concord grape vines were planted in pots containing Pro-Mix® BX potting soil (Pro-Mix is a registered trademark of and available from Premier Horticulture Ltd.) and pruned to five nodes on a single shoot of one-year-old wood. Nodes are regions on the shoot where leaves arise from the shoot and buds are present at the axis of the shoot:leaf interface. The bud found at the shoot:leaf interface develops into the vines new shoot growth. Aqueous solutions of forchlorfenuron, HC, 15-0-0 fertilizer, 17-0-0 fertilizer, and mixtures thereof were each applied individually or sequentially or co-applied to the first-year wood of separate Concord grape vines. […] Percent bud break is determined by the number of plants that have at least one bud broken divided by the total number of plants per treatment times 100. […] New shoot growth is the growth arising from the dormant buds not including the woody growth that was planted and gave rise to the new growth.
as §1
(§4) The experiment from Example 1 was repeated with varying quantities of forchlorfenuron and fertilizers in a greenhouse experiment.

[3] = system: Concord grape vines; assay: Example 2: Concord grape vines greenhouse, forchlorfenuron and 15-0-0 fertilizer (Erger) study
Description: as §3, §1, §4

[4] = system: Malus (apple) rootstocks; assay: Example 4: bud break and shoot growth of Malus (apple) rootstocks
Procedure: as §1
as §2, with “field-grown Malus (apple) rootstocks” for “Prunus (stone fruit) plants in the greenhouse”, “potted Malus rootstocks that were pruned to a height of 25 centimeters.” for “Prunus plants.”

[5] = system: Flame seedless grape vines; assay: Example 3: bud break on spurs of field-grown Flame seedless grape vines; conditions: 41 days post application
Procedure: as §1
as §2, with “field-grown Flame seedless grape vines” for “Prunus (stone fruit) plants”, “Thermal, Calif.,” for “the greenhouse”, “separate spurs” for “shoots”, “Flame seedless grape vines.” for “Prunus plants.”, “41” for “28”, “treatment. Results of these evaluations can be seen below in Tables 11 and 12.” for “treatment.”

[6] = system: Concord grape vines; assay: Example 1: bud break and shoot growth of potted Concord grape vines in greenhouse; conditions: for 0-50% BB: days from bud break on the first plant to 50% of the plants with bud break, synchrony
Description: An aqueous 50% hydrogen cyanamide solution (Sigma-Aldrich, St. Louis, Mo. USA) was used as the source of hydrogen cyanamide (“HC”). The commercial product, Dormex® contains 50% hydrogen cyanamide (w/v) in an aqueous base.
Erger® was used as the source of 15-0-0 fertilizer. Erger® contains 15% total nitrogen as 3.1% ammoniacal nitrogen, 5.8% nitrate nitrogen, 6.1% urea nitrogen and 3.3% calcium derived from a mixture of ammonium nitrate, calcium nitrate and urea. Erger® is always used in combination with either 20% (w/v) Ca(NO3)2 or Activ Erger®. In the following examples, 15-0-0 fertilizer was applied at a rate of 208,340 ppm calcium nitrate, 15,060 ppm nitrogen nitrate and 15,660 ppm urea or 239,060 ppm total.
CAN-17 was used as the 17-0-0 fertilizer. CAN-17 contains 17% total nitrogen as 4.6% ammonium nitrogen and 11.6% nitrate nitrogen and 1.3% urea nitrogen and 8.8% calcium derived from ammonium nitrate and calcium nitrate. CAN-17 is available from J. R. Simplot Company (Boise, Id., USA). In the following examples, 17-0-0 fertilizer was applied at a rate of 118,200 ppm calcium nitrate and 78,900 ppm nitrogen nitrate or 197,100 ppm total. See, Table 1 below, for ratios of forchlorfenuron (“CPPU”) to fertilizer that were used in the following examples.
To assess the ability of mixtures of the invention to promote and synchronize bud break these mixtures were applied to Concord grape vines and examined for bud break (initiation of growth) and subsequent shoot development. Specifically, dormant bare-rooted Concord grape vines were planted in pots containing Pro-Mix® BX potting soil (Pro-Mix is a registered trademark of and available from Premier Horticulture Ltd.) and pruned to five nodes on a single shoot of one-year-old wood. Nodes are regions on the shoot where leaves arise from the shoot and buds are present at the axis of the shoot:leaf interface. The bud found at the shoot:leaf interface develops into the vines new shoot growth. Aqueous solutions of forchlorfenuron, HC, 15-0-0 fertilizer, 17-0-0 fertilizer, and mixtures thereof were each applied individually or sequentially or co-applied to the first-year wood of separate Concord grape vines. Plants were grown in a heated greenhouse for 49 days and evaluated for percent of vines showing bud break, periodically between seven days after application and the conclusion of the experiment. Percent bud break is determined by the number of plants that have at least one bud broken divided by the total number of plants per treatment times 100. At 51 days after treatment (“DAT”), the plants were sacrificed and measured for total number of flower clusters, total new shoot length, longest new shoot, combined new shoot fresh weight. New shoot growth is the growth arising from the dormant buds not including the woody growth that was planted and gave rise to the new growth.
as §1

[7] = days after treatment to 50% bud break
[8] = combined shoot fresh weight, 52 days after planting

N#CN [1% HC (v/v), hydrogen cyanamide]
Fresh Weight at Harvest, FW ([1]; combined new shoot fresh weight, harvest at 28 days): 4.76 grams
50% BB [1, 7]: 7 days
Fresh Weight at Harvest [2, 8]: 37.01 grams
50% BB [2, 7]: 17 days
Average Number of Broken Nodes Per Plant at Harvest ([2]; harvest 52 days after planting): 2.38
Fresh Weight at Harvest [3, 8]: 42.21 grams
50% BB [3, 7]: 17 days
Average Number of Broken Nodes Per Plant at Harvest ([3]; harvest 52 days after planting): 2.13
Fresh Weight at Harvest ([4]; combined new shoot growth, harvest at 28 days): 7.99 grams
50% BB [4, 7]: 12 days
Average Number of Broken Buds Per Malus Plant at Harvest ([4]; harvest at 28 days): 8.13
Fresh Weight per Bud at Harvest ([4]; harvest at 28 days): 0.98 grams
Average Number of Broken Nodes Per Centimeter of Shoot at Harvest ([4]; harvest at 28 days, rootstocks pruned to 25 centimeters): 0.325
Broken Buds per Spur (OCE) [5]: 1.48
Percentage of Spurs With At Least One Bud Broken (OCE) [5]: 72%
Percentage of Concord Grape Vines with Dormancy Relieved ([6]; 31 days after treatment, plants with at least one bud showing a green shoot emerging): 100%
Percentage of Concord Grape Vines with Dormancy Relieved ([6]; 34 days after treatment): 100%
Percentage of Concord Grape Vines with Dormancy Relieved ([6]; 36 days after treatment): 100%
Percentage of Concord Grape Vines with Dormancy Relieved ([6]; 38 days after treatment): 100%
Percentage of Concord Grape Vines with Dormancy Relieved ([6]; 43 days after treatment): 100%
Percentage of Concord Grape Vines with Dormancy Relieved ([6]; 45 days after treatment): 100%
Percentage of Concord Grape Vines with Dormancy Relieved ([6]; 51 days after treatment): 100%
Broken Buds/Plant ([6]; 51 days post-treatment): 2.50
FW/Broken Bud ([6]; 51 days post-treatment): 11.18 grams
FW/Plant ([6]; combined shoot fresh weight at 51 DAT): 27.95 grams
50% BB ([6]; days from application to 50% of the plants showing at least one bud broken): 15 days
0-50% BB [6]: 4 days
0-50% BB ([6]; listed as 1% HC): four
